According to patent EP0457908A1, “HYDROCHLORIDE 2,3,3a,4,5,6-HEXAHYDRO-8-CYCLOHEXYL-1H-PYRAZINO (3,2,1-j,k)CARBAZOL, METHOD OF OBTAINING IT AND A PHARMACEUTICAL PREPARATION OF ANTIDEPRESSIVE ACTION BASED ON IT” (priority 1989, dated 1991):

Assays:
monoaminoxidase [1] = test: Monoaminoxidase activity in brain and liver homogenates after oral dosing; format: in vivo, male white rats
Method: (§1) The effect of the compound according to the present invention on the activity of monoaminoxidase was studied in special biochemical investigations.
(§2) The experiments were conducted in vivo on male white rats with a mass of 180-200 g. The compound in the doses of 5, 10, 25 and 50 mg/kg was administered orally. An equal volume of a […] of NaCl was administered to control animals. 1.5 hour after administration of the drug the animals were killed. […] The activity of monoaminoxidase was determined in 50% homogenates of the liver and brains of rate prepared on the basis of a 0.1 M phosphate buffer (pH = 7.4) containing 2% of a detergent - Trytol X-100. The substrates were used in concentrations of serotonin 10 µmol, tyramine 6 µmol per sample. The activity of monoaminoxidase was evaluated by liberation of ammonia during incubation of the samples for 50 minutes at the temperature of 37 °C in an oxygen atmosphere.
(§3) Protein in homogenates of the rat liver and brain was determined following the Peterson procedure (1977).

monoaminoxidase [2] = target: T1, monoaminoxidase (Rattus norvegicus, UniProt P21396); test: as above; format: in vivo, male white rats
T1 sequence (P21396 1-526): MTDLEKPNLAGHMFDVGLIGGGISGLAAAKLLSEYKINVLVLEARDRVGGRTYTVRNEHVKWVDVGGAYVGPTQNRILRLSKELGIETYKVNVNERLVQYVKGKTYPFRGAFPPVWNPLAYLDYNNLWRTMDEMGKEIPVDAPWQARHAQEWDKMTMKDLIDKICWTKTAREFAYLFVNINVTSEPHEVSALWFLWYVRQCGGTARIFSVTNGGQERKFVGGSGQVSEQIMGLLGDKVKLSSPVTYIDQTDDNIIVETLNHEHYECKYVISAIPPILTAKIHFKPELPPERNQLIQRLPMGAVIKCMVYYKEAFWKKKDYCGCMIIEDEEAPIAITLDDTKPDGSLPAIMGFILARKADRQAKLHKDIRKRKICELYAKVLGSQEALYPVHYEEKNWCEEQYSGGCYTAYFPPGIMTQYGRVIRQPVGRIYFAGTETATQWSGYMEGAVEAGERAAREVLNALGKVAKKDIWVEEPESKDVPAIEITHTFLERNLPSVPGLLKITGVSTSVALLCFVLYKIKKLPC
Method: as §1, §2, §3

rabbits = test: Bioelectrical activity of the brain (electroencephalogram), rabbits; format: in vivo
Excerpt: (§4) The study of the effect on the bioelectrical activity of the brain was effected in acute experiments using 8 consious cats immobilized with diplacin with a mass of 2.5-3.4 kg under conditions of a controlled breathing and 25 rabbits with a mass of 2.6-3.1 kg with chronically implanted electrodes. Recorded on an electroencephalograph was an electroencephalogram of the sensomotor, parietal and visual regions of the cerebral cortex in cats, plus that of the reticular formation of the midbrain, dorsal hippocamp and amygdala in rabbits.

cats = test: Bioelectrical activity of the brain (electroencephalogram), cats; format: in vivo
Excerpt: as §4

Solubility = format: physicochemical
mice, rats and rabbits = test: Chronical toxicity, daily administration for 6 months; format: in vivo; conditions: daily for 6 months
Excerpt: The acute and chronical toxicity of the compound according to the present invention was studied on mice, rats and rabbits.
Upon a daily administration of the compound according to the present invention for the period of 6 months no functional disturbances on the part of the inner organs of the animals were observed.

[3] = Allergenic, embryotoxic and teratogenic effect; conditions: in vivo
white rats = test: Stereotypy induced by d,l-amphetamine; format: in vivo; conditions: distilled water = 100
Method: To evaluate the influence on stereotypy, the experiments were carried out on white rats of both sexes with a mass of 100-150 g. […] Stereotypy was assessed in points of from to 3 (after Janssen et al., 1967).

patients = test: Clinical test on patients with depressions; format: in vivo, human beings
Method: The drug according to the present invention was tested in a clinic on patients (561 persons) aged 18 to 72 suffering from depressions of various genesis - endogenous, reactive, neurotic depressions caused by organic injuries of the brain, as well as depressive disturbances in chronical alcoholism and the like.
Clinical tests for different types of depressions were carried out in the following groups of patients:
The drug according to the present invention was administered orally in tablets twice a day - in the morning and in the afternoon. The dose depended on the severity of disease, efficiency and tolerance of the drug.
The treatment was usually started with administration of the drug in single doses of 0.025 g (25 mg) with a gradual increment of the daily dose for 1 to 3 weeks up to 200-300 to 350-400 mg.
The treatment duration ranged from 7 days to 12 weeks, more frequently 40-45 days.
In a number of cases (55 patients) the drug according to the present invention was administered in combination with other psychotropic agents selected mainly from the group of tranquilizers and neuroleptics (tazepam, seduxen, tizercin, and the like).
The efficiency as the drug according to the present invention was assessed with the use of assessment scales.

[4] = 5 mg/kg oral, 1.5 hour after administration
[5] = 10 mg/kg oral, 1.5 hour after administration
[6] = 25 mg/kg oral, 1.5 hour after administration (Table 5)
[7] = 25 mg/kg orally, time 1.5 hours (Table 6)
[8] = 25 mg/kg orally, time 6.0 hours
[9] = 25 mg/kg orally, time 48.0 hours
[10] = 50 mg/kg oral, 1.5 hour after administration
[11] = endogenous depressions (maniac-depressive psychosis, schizophrenia), asthenic or asthenoadynamic syndromes, light and medium severity

## 2,3,3a,4,5,6-hexahydro-8-cyclohexyl-1H-pyrazino-(3,2,1-j,k)-carbazole hydrochloride [Compound of the present invention]
Monoaminoxidase [1]; [4]
  Inhibition of deamination, % (M±m), Brain, Tyramine: 17±4.2%
  Inhibition of deamination, % (M±m), Liver, Tyramine: 0%
Monoaminoxidase [1]; [5]
  Inhibition of deamination, % (M±m), Brain, Tyramine: 16.6±3.4%
  Inhibition of deamination, % (M±m), Liver, Tyramine: 0%
Monoaminoxidase [1]; [6]
  Inhibition of deamination, % (M±m), Brain, Tyramine: 40±3.0%
  Inhibition of deamination, % (M±m), Liver, Tyramine: 0%
Monoaminoxidase [1]; 25 mg/kg orally
  time after which the activity of monoaminoxidase was fully restored: 48 h
Monoaminoxidase [1]; [7]
  Inhibition of deamination, % (M±m), Brain, Tyramine: 40.0±3.0%
  Inhibition of deamination, % (M±m), Liver, Tyramine: 0%
Monoaminoxidase [1]; [8]
  Inhibition of deamination, % (M±m), Brain, Tyramine: 36.0±9.3%
  Inhibition of deamination, % (M±m), Liver, Tyramine: 0%
Monoaminoxidase [1]; [9]
  Inhibition of deamination, % (M±m), Brain, Tyramine: 2.5±1.1%
  Inhibition of deamination, % (M±m), Liver, Tyramine: 0%
Monoaminoxidase [1]; [10]
  Inhibition of deamination, % (M±m), Brain, Tyramine: 43±6.6%
  Inhibition of deamination, % (M±m), Liver, Tyramine: 0%
Monoaminoxidase [1]; rat, in vivo
  character of the inhibiting effect on the activity of monoaminoxidase: reversible selective inhibitor of monoaminoxidase of the A type
Monoaminoxidase [2]; [4]
  Inhibition of deamination, % (M±m), Liver, Serotonin: 36±9.0%
Monoaminoxidase [2]; 5 mg/kg oral, 1.5 hour after administration, listed as Compound of the invention, hydrochloride
  Inhibition of deamination, % (M±m), Brain, Serotonin: 60±6.3%
Monoaminoxidase [2]; 5 mg/kg oral, 1.5 hour after administration, listed as compound according to the present invention, hydrochloride
  Inhibition of deamination, % (M±m), Brain, Serotonin: 60%
Monoaminoxidase [2]; [5]
  Inhibition of deamination, % (M±m), Brain, Serotonin: 61±7.6%
  Inhibition of deamination, % (M±m), Liver, Serotonin: 27±6.7%
Monoaminoxidase [2]; [6]
  Inhibition of deamination, % (M±m), Brain, Serotonin: 71±7.6%
  Inhibition of deamination, % (M±m), Liver, Serotonin: 64±6.4%
Monoaminoxidase [2]; [7]
  Inhibition of deamination, % (M±m), Brain, Serotonin: 71.0±2.0%
  Inhibition of deamination, % (M±m), Liver, Serotonin: 64.0±6.4%
Monoaminoxidase [2]; [8]
  Inhibition of deamination, % (M±m), Brain, Serotonin: 66.5±3.0%
  Inhibition of deamination, % (M±m), Liver, Serotonin: 53.0±3.0%
Monoaminoxidase [2]; [9]
  Inhibition of deamination, % (M±m), Brain, Serotonin: 14.0±4.8%
  Inhibition of deamination, % (M±m), Liver, Serotonin: 0%
Monoaminoxidase [2]; [10]
  Inhibition of deamination, % (M±m), Brain, Serotonin: 93±3.0%
  Inhibition of deamination, % (M±m), Liver, Serotonin: 89±2.7%
rabbits; 2 mg/kg, rabbits, hippocampus
  amplitude of sinusoidal regular waves (teta-activity): 150-200 µV
  frequency of sinusoidal regular waves (teta-activity): 4-6 oscillations per second
rabbits; 2 mg/kg, rabbits, visual, parietal regions and reticular formation of the midbrain
  frequency of regular low-amplitude rhythms: 5-7 oscillations per second
rabbits; 2 mg/kg, species not given
  time after administration at which the variations in the electroencephalogram appeared: 75-90 minutes
rabbits; 5 mg/kg, species not given
  time after administration at which the effect of activation was recorded: 45 to 60 min
cats; 2 mg/kg, cats, all recorded regions of the brain cortex, control 8-10 per second
  frequency of the rhythm of oscillations of biopotentials: 20-25 per second
cats; 2 mg/kg, cats, all recorded regions of the brain cortex, control 90-120 µV
  amplitudes of oscillations of biopotentials: 25-40 µV
cats; 0.5 and 1 mg/kg, intravenously and intraperitoneally, cats and rabbits not distinguished
  changes in the bioelectric activity in the cortex and subcortical brain structures: did not bring about any changes
Solubility
  solubility in a 95% ethanol and chloroform: very sparingly soluble
  solubility in water and ether: substantially insoluble
mice, rats and rabbits; 100 mg/kg
  pathomorphological study: non-specific pathological changes in parenchymatous organs which were of a reversible character
mice, rats and rabbits; 10 and 50 mg/kg
  pathomorphological study: no pathological changes
[3]
  allergenic, embryotoxic or teratogenic effect: did not exhibit an allergenic effect, an embryotoxic or teratogenic effect
White rats; oral dose 2.5 mg/kg
  Stereotypy (tolal, for 4 measurements for 4 hours after hypodermal administration of d,l-amphetamine), %: 145%
White rats; oral dose 5.0 mg/kg
  Stereotypy (tolal, for 4 measurements for 4 hours after hypodermal administration of d,l-amphetamine), %: 170%
White rats; oral dose 10.0 mg/kg
  Stereotypy (tolal, for 4 measurements for 4 hours after hypodermal administration of d,l-amphetamine), %: 225%
patients; depressive disorders of the neurotic and reactive genesis
  improvement observed, % of cases: 80-100%
patients; [11]
  improvement observed, % of the events: 37-92%
  improvement observed, % of the events, on the average: 50%
patients; human, in vivo
  patients with a previous resistance to another antidepressant therapy in whom the drug was highly effective: 6 out of 21
  toleration by patients: good toleration by patients
